Drawing on ChEMBL document CHEMBL4330072, “Neuroprotective effects of a novel carnosine-hydrazide derivative on hippocampal CA1 damage after transient cerebral ischemia” (Eur J Med Chem, 2019), this text covers Activity for six molecules.

Activity calls are given as the source filed them. The rule behind the calls is not given here.

Data set [1] can be described thus: Quenching activity of compound in pH 7.4 PBS assessed as 4-HNE consumption at 2 mmol/L after 1 hr by HPLC analysis. The class given is functional.
Data set [2] can be described thus: Quenching activity of compound in pH 7.4 PBS assessed as 4-HNE consumption at 2 mmol/L after 30 mins by HPLC analysis relative to control. The class given is functional.
The subject of data set [3] is PC-12. Put plainly: Cytotoxicity against rat PC12 cells at 1 to 50 mM after 30 mins by MTT assay. In kind it is cell-based. Conditions: pc-12, 0.5 h, 50000 µM. (In general: Tetrazolium assays rely on reduction of a dye to a coloured formazan, in cell work by metabolically active cells.)
For data set [4], the system named is PC-12. Put plainly: Neuroprotective activity against 4-HNE-induced toxicity in rat PC12 cells preincubated for 30 mins followed by compound wash and 4-HNE addition measured after 24 hrs by MTT assay. In kind it is functional, cell-based.
In data set [5] the test system is PC-12. Nature of the data set: Neuroprotective activity against 4-HNE-induced toxicity in rat PC12 cells at 30 mM preincubated for 30 mins followed by compound wash and 4-HNE addition measured after 24 hrs by MTT assay relative to control. In kind it is functional.
Data set [6] deals with Meriones unguiculatus. Nature of the data set: Neuroprotective activity against BCCO-induced transient cerebral ischemia in mongolian gerbil hippocampal CA1 region assessed as increase in viable neurons at 20 mg/kg, ip administered 20 mins prior to BCCO treatment and measured after 7 days by hematoxylin and eosin staining-based light microscopic analysis relative to control. The class given is functional.

The subject of data set [7] is Meriones unguiculatus. Put plainly: Neuroprotective activity against BCCO-induced transient cerebral ischemia in mongolian gerbil hippocampal CA1 region assessed as increase in viable neurons at 100 mg/kg, ip administered immediately after BCCO treatment and measured after 7 days by hematoxylin and eosin staining-based light microscopic analysis relative to control. In kind it is functional.

Data set [8] deals with Meriones unguiculatus. Put plainly: Neuroprotective activity against BCCO-induced transient cerebral ischemia in mongolian gerbil hippocampal CA1 region assessed as increase in Hsp70 activity at 20 mg/kg, ip administered 20 mins prior to BCCO treatment measured after 24 hrs by immunostaining analysis. In kind it is functional, organism-based.
Data set [9] deals with Meriones unguiculatus. Put plainly: Neuroprotective activity against BCCO-induced transient cerebral ischemia in mongolian gerbil hippocampal CA1 region assessed as increase in viable neurons at 100 mg/kg, ip administered immediately after BCCO treatment and measured after 7 days by hematoxylin and eosin staining-based light microscopic analysis. In kind it is functional, organism-based.

In the case of `CC(=O)NCCC(=O)N[C@@H](Cc1c[nH]cn1)C(=O)NNC(C)=O`, the outcome in [1] was Active.

As for `NCCC(=O)N[C@@H](Cc1c[nH]cn1)C(=O)NN`, the outcome in [1] and in data set [8] was Active. Besides, the Activity in data set [2] was 90%; in [3], “Non-Toxic”; in [4], “Dose-dependent effect”; in [5], 100%; in data set [6], more than 60%; in [7], 40%.

Regarding `CC(=O)NNC(=O)[C@H](Cc1c[nH]cn1)NC(=O)CCN`, the result in [1] was Active.

Turning to `NNC(=O)[C@@H](N)Cc1c[nH]cn1`, the result in [1] was Active. Also, the Activity in data set [2] was 70%. The outcome in data set [9] was inactive.

As for `CC(=O)NCCC(=O)N[C@@H](Cc1c[nH]cn1)C(=O)NN`, the outcome in data set [1] was Active.

Turning to `NCCC(=O)N[C@@H](Cc1c[nH]cn1)C(=O)O`, the outcome in data set [1] was Active. Also, the Activity in data set [2] stood at 20%.
